Experimental data published in publication PMC9695823, “Regioselective Synthesis of 6-O-Acetyl Dieckol and Its Selective Cytotoxicity against Non-Small-Cell Lung Cancer Cells” (Marine Drugs, 2022).

What was measured:
A549 cells = assay: MTT cytotoxicity assay against A549 non-small-cell lung cancer cells; format: cell-based; conditions: for IC50: Homo sapiens, A549
Experimental: (§1) The cytotoxicity of DK and its various acyl and alkyl derivatives was assessed using the MTT assay against a non-small-lung cancer cell line (A549) and a normal cell line (NIH/3T3) at […] different concentrations (0, 0.005, 0.05, 0.5, 5, 50 and 500 μM). Among the newly synthesized acyl derivatives, the 6-O-acetyl (2) and 6-O-benzoyl (3) derivatives were included in this study, while the 6-O-propionyl (4) and 6-O-toluoyl (5) derivatives, which had been considered to be very similar to 6-O-acetyl (2) and 6-O-benzoyl (3) derivatives, respectively, were excluded from this study. […] The methyl and benzyl derivatives (6 and 7) were selected in parallel with acetyl and benzoyl (2 and 3) derivatives, respectively, to identify any impact of substitution chemistry (via sp^2 vs. sp^3 carbon in acylations and alkylations, respectively) and steric effect in cytotoxicity. Methoxymethyl (8), 3-(ethoxycarbonyl)propyl (9) and hydroxypropyl (10) derivatives were selected to determine the size effect of moderately polar substituents with a common heteroatom such as oxygen.
(§2) The non-small-cell lung cancer cell line A549 and the normal cell line NIH/3T3 were purchased from Korea Cell Line Research Foundation (Seoul, Korea). The cell lines were cultured in Dulbecco’s modified Eagle’s medium (DMEM) supplemented with 10% FBS and 1% penicillin–streptomycin at 37 °C with 5% CO2.
The cytotoxicity of DK and its derivatives was assessed by MTT assay, based on the reduction of MTT into insoluble formazan crystals by metabolically active cells. Briefly, the cells ([…]) were seeded in each well containing culture medium in a 96-well plate. After the incubation for 24 h at 37 °C, various concentrations of DK and its derivatives were added. After 24 h, 10 μL of the MTT reagent ([…]) was added, and the plates were incubated for an additional 2 h. The medium was discarded, and the formazan blue, which was formed in the cells, was dissolved in […] of dimethyl sulfoxide (DMSO). The optical density was measured at 540 nm using a microplate spectrophotometer (Epoch; Agilent Technologies, Inc. Santa Clara, CA, USA). The IC50 corresponded to a 50% decrease in the number of cells compared to the untreated control. The results are represented as the mean of three independent experiments. The IC50 values of DK and its derivatives were determined for the different cell lines by nonlinear regression using GraphPad Prism v6.0 software (La Jolla, CA, USA).

[1] = MTT cytotoxicity assay against normal cell line NIH/3T3; format: cell-based; conditions: mouse, NIH/3T3 normal cells, 24 h treatment, 0-500 μM, mean ± SD
Experimental: as §1, §2
(§3) The cytotoxicity of DK and its derivatives was assessed by MTT assay, based on the reduction of MTT into insoluble formazan crystals by metabolically active cells. Briefly, the cells ([…]) were seeded in each well containing culture medium in a 96-well plate. After the incubation for 24 h at 37 °C, various concentrations of DK and its derivatives were added. […] The optical density was measured at 540 nm using a microplate spectrophotometer (Epoch; Agilent Technologies, Inc. Santa Clara, CA, USA). […] The IC50 values of DK and its derivatives were determined for the different cell lines by nonlinear regression using GraphPad Prism v6.0 software (La Jolla, CA, USA).

[2] = test system: NSCLC (A549) cells vs. normal (NIH/3T3) cells; assay: Selectivity index, cytotoxicity A549 vs. NIH/3T3; format: cell-based; conditions: SI = IC50 (NIH/3T3 cells)/IC50 (A549 cells)
Description: The ideal anticancer drug should have a relatively high toxic concentration on normal cells with a very low active concentration on cancer cells. In this study, the cancer-selective cytotoxicity of DK derivatives has been studied for the first time. To address this selectivity issue, the selectivity index (SI), which is defined as the ratio of the toxic concentration of a sample against its effective bioactive concentration according to Equation (1) (see Section 4.7), was used. […] An SI value ≥ 10 was assumed to belong to a selected potential sample that can be further investigated. Therefore, the acetyl and hydroxypropyl DKs would be highly considered for further investigations as potential anti-NSCLC chemotherapeutic agents.
The selectivity index (SI) was determined to assess the selective cytotoxicity of the DK derivatives against NSCLC (A549) cells vs. normal (NIH/3T3) cells based on Equation (1):SI = IC50 (NIH/3T3 cells)/IC50 (A549 cells)(1)

NIH/3T3 cells = assay: MTT cytotoxicity assay against normal cell line NIH/3T3; format: cell-based; conditions: 24 h treatment, 0-500 μM, mean ± SD, listed as DK
Experimental: as §1, §2, §3

[3] = design: method as in PMID 35542614; conditions: estimated; cited from earlier work
[4] = MTT, 24 h treatment, 0-500 μM, mean ± SD

OCCCOc1cc(O)cc2c1Oc1c(Oc3cc(O)c(Oc4cc(O)c5c(c4)Oc4c(O)cc(O)c(Oc6cc(O)cc(O)c6)c4O5)c(O)c3)c(O)cc(O)c1O2 [compound 10]
IC50 (A549 cells; [4]): 13.1 ± 5.06 µM | IC50 at 24 h [1]: 563 ± 51.8 µM | SI Value (selectivity index) [2]: 43.07

Oc1cc(O)cc(Oc2c(O)cc(O)c3c2Oc2c(O)cc(Oc4c(O)cc(Oc5c(O)cc(O)c6c5Oc5c(O)cc(O)cc5O6)cc4O)cc2O3)c1 [compound 1, Dieckol]
Cytotoxicity (IC50) A549 (A549 cells; MTT, 24 h treatment, 0-500 μM, mean ± SD, listed as DK): did not show detectable cytotoxicity | Cytotoxicity (IC50) NIH/3T3 (NIH/3T3 cells): did not show detectable cytotoxicity | lowest pKa [3]: 5.0

CC(=O)Oc1cc(O)cc2c1Oc1c(Oc3cc(O)c(Oc4cc(O)c5c(c4)Oc4c(O)cc(O)c(Oc6cc(O)cc(O)c6)c4O5)c(O)c3)c(O)cc(O)c1O2 [compound 2, 6-O-acetyl dieckol]
times higher activity than 6-O-benzyl DK (A549 cells; A549 cells): 120 times | IC50 (A549 cells; [4]): 7.02 ± 1.53 µM | IC50 at 24 h [1]: 481 µM | SI Value (selectivity index) [2]: 68.58

O=C(Oc1cc(O)cc2c1Oc1c(Oc3cc(O)c(Oc4cc(O)c5c(c4)Oc4c(O)cc(O)c(Oc6cc(O)cc(O)c6)c4O5)c(O)c3)c(O)cc(O)c1O2)c1ccccc1 [compound 3, 6-O-benzoyl dieckol]
fold increase in IC50 compared with acetyl DK (A549 cells; A549 cells): 91 fold | IC50 (A549 cells; [4]): 641 ± 17.9 µM
